Experimental data from patent publication US11578013B2, “Nitrification inhibitors” (Lincoln University, priority 2020, dated 2023).
In brackets after ≈: the same amount, converted by molar mass.

Legend:
Mycobacterium smegmatis = test: Antimicrobial susceptibility testing (MIC plate); assay type: cell-based; conditions: at concentrations used in soil to inhibit nitrification
Procedure: (§1) To determine if 4-Ethynylanisole specifically targets the ammonium oxidizing bacterium N. europaea we examined the antimicrobial properties of 4-Ethynylanisole against selected bacterial species. Bacteria were routinely grown in Lysogeny broth (LB) (E. coli and B. subtilis), LB-Tween (M. smegmatis), or Rhizobium defined media (G RDM) (M. loti […]). E. coli, B. subtilis, and M. smegmatis were grown overnight (18 hr) at 37° C. with shaking (200 rpm), whereas M. loti […] was grown for 48 hr statically at 28° C. 96-well microtiter plates used for the antimicrobial susceptibility testing were set up as follows; 200 μl of media (or as appropriate) was added to column […]) and 100 μl of media was added to the remaining wells of a polystyrene 96 well plate. 4-Ethynylanisole was added to column 1 at a concentration of 512 μM (or as required) and serially diluted 2-fold (100 μl transfer) into the neighbouring wells, making sure to discard 100 μl from the last well. Thus, resulting in a serial dilution of each compound. […] Plates were incubated at either 37° C., or 28° C. (with shaking as required) for 18-48 hr before determining the MIC.

Bacillus subtilis = test: Antimicrobial susceptibility testing (MIC plate); assay type: cell-based; conditions: at concentrations used in soil to inhibit nitrification
Procedure: as §1

Escherichia coli = test: Antimicrobial susceptibility testing (MIC plate); assay type: cell-based; conditions: at concentrations used in soil to inhibit nitrification
Procedure: as §1

Mesorhizobium loti R7A = test: Antimicrobial susceptibility testing (MIC plate); assay type: cell-based; conditions: at concentrations used in soil to inhibit nitrification
Procedure: as §1

[1] = test system: nitrification in the soil; test: Soil column study at low rates (Study 3-14): nitrate-N; conditions: day 60
Procedure: (§2) To determine the effect of treating the soil with 4-Ethynylanisole at low rates, e.g. at 1 kg/ha and 2 kg/ha, soil column studies were conducted. The experiment was conducted in cylindrical PVC containers (Diameter=186 mm, Height=240 mm). The containers were filled with soil to half of the container's height (120 mm), leaving 120 mm headspace. The soil was Templeton sandy loam collected from Lincoln University Research Dairy Farm. It was screened using a 5 mm sieve and air-dried to the required moisture level and packed to bulk density of 1 g/cm3.
(§3) The experiment was conducted under controlled conditions. The temperature of the soil columns were maintained at around 12° C. by using a water bath to control the temperature.
The treatments included Control (Water), Control (animal urine), Control (urine+DMSO), Control (Urine+DCD at 10 kg/ha), Urine+4-Ethynylanisole (at 1 kg/ha) in DMSO, and Urine+4-Ethynylanisole (at 2 kg/ha) in DMSO. Synthetic cow urine was applied at 700 kg N/ha (comprising about 87% urea-N and 13% glycine-N), and 4-Ethynylanisole was applied at 1 or 2 kg/ha equivalent. The treatments were mixed with the soil. Soil moisture was adjusted to 100% field capacity (FC) and maintained between 80 and 100% FC over the duration of the experiment. Soil sampling was conducted on Days 1, 7, 14, 30, and 60. The soil samples were analysed for mineral N.

[2] = test system: nitrification in the soil; test: Soil column study with static gas chambers (Study 2-14): nitrate-N and N2O emissions
Procedure: as §2, with “on nitrification rate” for “at low rates, e.g. at 1 kg/ha”, “nitrous oxide emissions,” for “2 kg/ha,”, “studies with static gas chambers” for “studies”
as §3
The treatments included Control (Water), Control (animal urine), Control (urine+DMSO), Control (urine+DCD at 10 kg/ha) and urine+4-Ethynylanisole (10 kg/ha) in DMSO. Synthetic cow urine was applied at 700 kg N/ha (comprising about 87% urea-N and 13% glycine-N), and 4-Ethynylanisole was applied at 10 kg/ha. There were two sets of cores for each treatment, one set were fitted with static gas chambers with removable lids for nitrous oxide sampling, and the other set used for soil sampling. The urine was sprayed to the surface of the soil simulating urine deposition by a grazing animal; DMSO, or DCD or 4-Ethynylanisole mixed with DMSO was also sprayed onto the urine treated soils to simulate the treatment of urine patches. Nitrous oxide gas measurements followed these treatments—as is detailed further below.
For the soil columns that were set up for taking soil samples for analysis of mineral nitrogen, the different treatments were mixed with the soil for soil sampling. Soil moisture was adjusted to 100% field capacity (FC) and maintained between 80 and 100% FC over the duration of the experiment.
Nitrous oxide (N2O) gas sampling was conducted twice a week using the standard procedure (Di et al., 2007). Vials were evacuated prior to sampling. Three gas samples were taken with 20 minute intervals between each sampling. Sampling frequency was reduced to once a week when N2O fluxes decreased in intensity.
Soil sampling was conducted on Day 1, 7, 14, 30, and 60. The soil samples were analysed for mineral nitrogen.

Nitrosomonas europaea = test: In vitro screening of nitrite production by Nitrosomonas europaea; assay type: cell-based
Procedure: The phenotypic screening involved assessing the nitrification inhibition potency of the selected 5000 compounds against a key ammonia oxidizing bacterium responsible for ammonia oxidation in the soil, Nitrosomonas europaea, in 96-well microtiter plates. N. europaea cells were grown in the presence of an ammonium source, and the potential of putative nitrification inhibitors to inhibit the production of nitrite (NO2) was measured relative to untreated cells. […] Study 1-14

[3] = test system: nitrification in the soil; test: Laboratory soil incubation, Templeton sandy loam with synthetic cow urine, nitrate-N
Procedure: A Templeton sandy loam was used in this experiment. 500 g of soil (dry weight basis) was packed into a pottle. 50 mL of synthetic cow urine with an N concentration of 7 g N/L (comprising about 87% urea-N and 13% glycine-N) was applied to the soil (equivalent to 700 kg N/ha on weight basis, assuming bulk density of 1 g/cm^3 in the top 10 cm of soil). The 700 kg N/ha application was used to simulate the urine-N application rate under a typical dairy cow urine patch in a grazed pasture.
Control treatments also added to soil were: • urine alone (50 mL); • DMSO (equivalent to 0.9 mL/500 g soil)+urine (50 mL) to determine the effect of DMSO on nitrification rate; • water alone (50 mL) (simulating areas of the soil where no urine was deposited).
Pottles were covered with lids with breathing holes to allow for gas exchange during incubation. Pottles were incubated at 12° C. Soil moisture content was maintained at field capacity by adjusting on weight basis twice a week.
Soil samples were collected and were then thoroughly mixed and subsamples were extracted in a potassium chloride solution and analysed for mineral-N. Soil moisture content was also determined. Samples were taken at 30 days after the start of incubation. […]

Question: How did the “inhibition of bacterial growth” value (Mycobacterium smegmatis) turn out when `C#Cc1ccc(OC)cc1` [4-Ethynylanisole, 1-ethynyl-4-methoxybenzene] was run?
Answer: did not inhibit

Question: What about the “inhibition of bacterial growth” value (Bacillus subtilis) of the same compound?
Answer: did not inhibit

Question: And the “inhibition of bacterial growth” value (Escherichia coli)?
Answer: did not inhibit

Question: What about the “inhibition of bacterial growth” value (Mesorhizobium loti R7A) of the same compound?
Answer: did not inhibit

Question: And the “inhibiting nitrate production compared with DCD” value ([1]; 1 or 2 kg/ha vs DCD at 10 kg/ha)?
Answer: much more potent than DCD

Question: What about the “soil nitrate-N concentration compared with urine control” value ([1]; 1 or 2 kg/ha) of the same compound?
Answer: significantly lower nitrate-N concentrations

Question: And the “N2O—N emissions lower than urine alone control” value ([2]; 10 kg/ha sprayed to soil surface, soil column)?
Answer: 93.3%

Question: What about the “soil nitrate-N concentration compared with urine control” value ([2]; 10 kg/ha, day 60) of the same compound?
Answer: significantly lower nitrate-N concentrations

Question: And the “nitrous oxide reduction compared with DCD” value ([2]; both at 10 kg/ha)?
Answer: much greater than that by DCD

Question: And the “inhibiting nitrate production compared with DCD” value ([2]; both at 10 kg/ha, day 60)?
Answer: much more potent than DCD

Question: What about the “rate of nitrite production (OD519 nm)” value (Nitrosomonas europaea; 1.56 μM to 400 μM) of the same compound?
Answer: significantly reduced

Question: And the IC50 (Nitrosomonas europaea; Nitrosomonas europaea, read-out: IC50 (nitrite production reduced by half))?
Answer: 2400 nM

Question: And the MIC (Nitrosomonas europaea; Nitrosomonas europaea, read-out: Minimum Inhibitory Concentration (MIC) of nitrite production)?
Answer: 25 to 50 µM (≈ 3.3 to 6.61 µg/mL)

Question: What about the “nitrate-N concentration in the soil compared with urine alone” value ([3]; Study 1-14, 2 to 20 kg/ha, day 30) of the same compound?
Answer: significantly lower nitrate-N concentrations

Question: And the “soil nitrate-N concentration changes with time” value ([3]; Study 1-14, range of rates 2, 5, 10, 20 kg/ha, days 1, 14, 30)?
Answer: significant inhibition of nitrate production
